Assay results taken from PubChem BioAssay AID652187 (Sanford-Burnham Center for Chemical Genomics, 2013).
Calls of active or inactive are those of the source.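 The calls were made as follows: active = IC50 of 25 µM or lower, counted as toxic to worms; inactive = the rest.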

What follows are compounds tested on C. elegans VP596 worms, composite health score, 20-22 h (assay: nematode cytotoxicity of SKN-1 inhibitor analogs – whole organism, strain VP596, composite health score, round 1, cytotoxicity control for SKN-1 inhibitor project, SAR follow-up (AID 652187)).

Compound | IC50
c1ccc(-c2csc(-c3cccnc3)n2)cc1 | 63.3 µM (inactive)
CCOc1cc(CNC2CCCC2)ccc1OCc1ccc(F)cc1 | > 64 µM (inactive)
COc1ccc(-c2csc(-c3cccnc3)n2)cc1 | > 64 µM (inactive)
Clc1ccc(-c2csc(-c3ccncc3)n2)cc1 | < 64 µM (inactive)
Fc1ccc(COc2ccc(CNC3CCCC3)cc2Cl)cc1 | > 64 µM (inactive)
CCOc1cc(C(=O)NC2CCCC2)cc(Cl)c1OCc1ccc(F)cc1 | > 64 µM (inactive)
CCOc1cc(CNC2CCCC2)cc(Cl)c1OCc1ccc(F)cc1 | > 64 µM (inactive)
CCOc1cc(CNCc2ccccc2)cc(Cl)c1OCc1ccc(F)cc1 | > 64 µM (inactive)
CCOc1cc(CNC2CCCC2)cc(Cl)c1OCc1ccc(C)cc1 | > 64 µM (inactive)
Cc1ccc(-c2csc(-c3cccnc3)n2)cc1 | 61.1 µM (inactive)
Clc1ccc(-c2csc(-c3cccnc3)n2)cc1 | > 64 µM (inactive)
CCOc1cc(CNC2CCCC2)cc(Cl)c1OCc1ccc(OC)cc1 | > 64 µM (inactive)
COc1cc(CNC2CCCC2)cc(Cl)c1OCc1ccc(F)cc1 | > 64 µM (inactive)
Fc1ccc(-c2csc(-c3ccncc3)n2)cc1 | > 64 µM (inactive)
Fc1ccc(-c2csc(-c3cccnc3)n2)cc1 | > 64 µM (inactive)
CCOc1cc(CNC2CCCC2)cc(Cl)c1OCc1ccc(Cl)cc1 | > 64 µM (inactive)
CCOc1cc(CNC2CCCC2)cc(Cl)c1OCc1cccc(F)c1 | > 64 µM (inactive)
c1ccc(-c2csc(-c3ccncc3)n2)cc1 | > 64 µM (inactive)
CCOc1cc(CNC2CCCC2)cc(Cl)c1OC | > 64 µM (inactive)
CCOc1cc(CNC2CCCC2)cc(Cl)c1OCc1ccccc1F | > 64 µM (inactive)
COc1ccc(-c2csc(-c3ccncc3)n2)cc1 | > 64 µM (inactive)
CCOc1cc(CNC2CC2)cc(Cl)c1OCc1ccc(F)cc1 | > 64 µM (inactive)
CCOc1cc(CNC2CCC2)cc(Cl)c1OCc1ccc(F)cc1 | > 64 µM (inactive)
CCOc1cc(CNC2CCCCC2)cc(Cl)c1OCc1ccc(F)cc1 | > 64 µM (inactive)
CCOc1cc(CNc2ccccc2)cc(Cl)c1OCc1ccc(F)cc1 | > 64 µM (inactive)
Cc1ccc(-c2csc(-c3ccncc3)n2)cc1 | > 64 µM (inactive)
CCOc1cc(CNC2CCCC2)cc(Cl)c1OCc1ccccc1Cl | > 64 µM (inactive)
CCOc1cc(CNC(C)C)cc(Cl)c1OCc1ccc(F)cc1 | > 64 µM (inactive)
